Data taken from US8816109B2, “Process for preparation of hexadecyl cis-9-tetradecenoate and hexadecyl cis-10-tetradecenoate” (Council of Scientific & Industrial Research, priority 2009, dated 2014).

Experiments:
[1] = system: Freund's complete adjuvant induced arthritis; test: Freund's complete adjuvant induced arthritis model, treatment of established arthritis; format: in vivo, Male Wistar rats; details: for dose dependence of inhibition of arthritis: dose increased from 100 mg/kg to 300 mg/kg
Experimental: (§1) The anti-inflammatory activity potential of both the isomers of the cetyl myristoleate (4 & 8) was evaluated initially in carrageenan induced rat paw edema model employing the method of Winter et al (Winter C A, Risley E A and Nuss G W, J. Pharmacolo. Exp. Ther. 1963; 141:369-376). The arthritis developed by injecting Freund's Complete Adjuvant in Wistar rats is almost similar to the rheumatoid arthritis of the human beings.
Effect of Hexadecyl cis-9-Tetradecenoate and Hexadecyl cis-10-Tetradecenoate on the Arthritic Rats: The hexadecyl cis-9-tetradecenoate, 4 and hexadecyl cis-10-tetradecenoate, 8 produced synthetically given above in Scheme 1 and 2 were subjected to evaluation for anti-arthritic potential in Freund's complete adjuvant induced arthritis model in rats. Male Wistar rats were divided into 4 groups each containing 6 rats. Arthritis was induced in rats in all the groups by administering Complete Freund's Adjuvant (CFA) at the dose of 1 mg per rat by injecting at sub plantar region of the right hind paw. Paw volumes were measured for both paws on every alternate day till 14 days and till full arthritis was developed.

[2] = system: collagen-induced arthritis; details: synthesized pure compound, DBA/1 Lac J mice; cited from earlier work
[3] = system: carrageenan induced paw edema; test: carrageenan induced rat paw edema model (anti-inflammatory potential); format: in vivo; details: rats
Experimental: as §1
Evaluation Studies of Hexadecyl cis-9-Tetradecenoate and Hexadecyl cis-10-Tetradecenoate for Anti-inflammatory. Potential: Hexadecyl cis-9-tetradecenoate, 4 and hexadecyl cis-10-tetradecenoate, 8 produced synthetically exemplified above in Scheme 1 and Scheme 2 were assessed for the anti-inflammatory potential against carrageenan induced paw edema model. Rats were divided into 4 groups. Hexadecyl cis-9-tetradecenoate, 4. and hexadecyl cis-10-tetradecenoate, 8 were administered intraperitoneally to rats in two different groups at a dose of 400 mg/kg. […] Paw volumes were measured using plethysmometer before injecting carrageenan. Paw volumes were again measured 3 hr after the carrageenan administration. The anti-inflammatory potential of hexadecyl cis-9-tetradecenoate, 4 and hexadecyl cis-10-tetradecenoate, 8 were assessed by measuring the inhibition of the paw volumes with reference to mean paw volume in control group.

[4] = system: Freund's Complete Adjuvant induced poly arthritis; test: Freund's complete adjuvant induced polyarthritis, protection (dosing from 24 hr after adjuvant); format: in vivo, Male Wistar rats
Experimental: Evaluation of Hexadecyl cis-10-Tetradecenoate for Anti-arthritic Potential in Rats: The hexadecyl cis-10-tetradecenoate, 8 produced synthetically exemplified above in Scheme 2 was administered parenterally, particularly, by intraperitoneal route, either alone or in a compatible pharmaceutical carrier such as vegetable oils namely groundnut, sesame and cottonseed [for adjusting the dose volume of the active compound(s)] to male rats ranging in weight from 150 to 180 g. It should be noted that use of the mineral oil is not mandatory as the active compounds are oils themselves. The procedure as described in (Vogel's Drug Discovery and Evaluation Pharmacological assays, 2nd ed, 2002, Springer Verlag, pages 802-803) was followed. Male Wistar-rats were divided into one control and two treated groups. All the animals in three groups received Freund's complete adjuvant (1 mg/rat). This day was designated as day 1. After a period of 24 hr, hexadecyl cis-10-tetradecenoate, 8 was administered at a dose of 300 mg/kg to one treated group and another treated group received 2.5 mg/kg of indomethacin (used as standard drug). Dosing was continued for 15 days (FIG. 3). Control group received the vehicle (mineral oil) without any drug. Paw volumes (left and right) were measured on every alternate day.
All the rats in the control group developed severe polyarthritis as indicated by the increase in the paw volumes. […] Around 80% of the animals in the hexadecyl cis-10-tetradecenoate treated group were protected from developing arthritis in a period of 21 days. The remaining 20% rats were protected from arthritis in a period of 32 days.

| Structure (SMILES) | dose dependence of inhibition of arthritis [1] | anti arthritic properties [2] | reduction of adjuvant-induced arthritis compared with hexadecyl cis-9-tetradecenoate, 4 ([1]; rats) | inhibition of inflammation compared with hexadecyl cis-9-tetradecenoate, 4 [3] | animals protected from developing arthritis in a period of 21 days ([4]; 300 mg/kg intraperitoneal, dosing for 15 days) | animals protected from developing arthritis in a period of 21 days ([4]; 300 mg/kg intraperitoneal, dosing for 15 days, listed as hexadecyl cis-10-tetradecenoate) [%] | remaining rats protected from arthritis in a period of 32 days ([4]; 300 mg/kg intraperitoneal, dosing for 15 days, period of 32 days) [%] | protection from polyarthritis (paw volumes) ([4]; 300 mg/kg intraperitoneal, from 24 hr after adjuvant, dosing continued for 15 days) | effective range (dose) for protection of arthritis ([4]; rats, Freund's complete adjuvant) [gm/kg body weight] |
| --- | --- | --- | --- | --- | --- | --- | --- | --- | --- |
| CCCC/C=C\CCCCCCCC(=O)OCCCCCCCCCCCCCCCC [compound 4, hexadecyl cis-9-tetradecenoate] | dose dependent | confirmed its anti arthritic properties | – | – | – | – | – | – | – |
| CCC/C=C\CCCCCCCCC(=O)OCCCCCCCCCCCCCCCC [compound 8, hexadecyl cis-10-tetradecenoate] | dose dependent | – | comparable | comparable | Around 80% | 80 | 20 | protected from the polyarthritis | 0.1 to 1.0 |
